Measured values taken from patent publication US20080279923A1, “Use of Microtubule Stabilizing Compounds for the Treatment of Lesions of Cns Axons” (Max-Planck-Gesellschaft zur Forderung de Wissensch, priority 2005, published 2008).
Where “and” joins values, the source holds several entries; their conditions need not be identical. Equal entries are not always repeated.

Assays:
[1] = i.v. in mice; cited from earlier work
[2] = system: growth cones of lesioned sciatic nerve axons; assay: Nocodazole application onto lesioned sciatic nerve (growth cone to bulb conversion); assay type: in vivo, GFP-M mice
Experimental: The mice were anesthetized as described. The sciatic nerve was exposed at around 2.5 cm from the DRG cell bodies by a small incision and crushed with forceps for ten seconds. The incision was sutured and the skin stapled. The anesthesia was reversed and the animals were transferred to a heating pad for the following 24 hours.
Sciatic nerve lesion was performed as described. After 24 hours animals were re-anesthetized and 10 μl of 330 μM of nocodazole (Sigma-Aldrich, diluted in 5% DMSO in PBS) or 5% DMSO alone was applied onto lesion site with a pipette. The injury site was closed and animals were perfused 24 hours after nocodazole or DMSO application for staining and imaging.
(§1) The size of retraction bulbs and growth cones was quantified as follows: the maximum diameter of the retraction bulb and growth cone at the tip of the axon was measured and divided by the axon diameter of the same end structure where the axon looked normal.

[3] = system: rat hippocampal neurons; assay: Process and axon formation during long term incubation with low drug concentrations; assay type: cell-based; details: for number of processes per cell: read at 3 DIV; for total neurite length: 3 DIV; for number of processes which exceeded 60 μm: 2 further DIV
Experimental: (§2) Primary hippocampal neurons derived from rat embryos were cultured following the protocol of Goslin and Banker (1991) and de Hoop et al. (1997). In brief, the hippocampi of E18 rats were dissected, trypsinized, and physically dissociated. The cells were then washed in HBSS, and 1.0-1.3×10^5 cells were plated onto poly-lysine-treated glass coverslips in 6 cm petri dishes containing minimal essential medium (MEM) and 10% heat-inactivated horse serum. The cells were kept in 5% CO2 at 36.5° C. After 12-18 hr, the coverslips were transferred to a 6 cm dish containing astrocytes in MEM and N2 supplements.
For long term incubation, 0.1 to 30 nM Taxol (Sigma), 0.1 to 1 μM cytochalasin D (Sigma) or 3 nM to 10 μM Nocodazole (Sigma) were added to culture medium after 1 day in culture, and cells were further incubated at 36.5° C. Drugs were kept as stock solutions in DMSO at −20° C. (Taxol: 5 mM; Cytochalasin D: 10 mM; Nocodazole: 6.67 mM).
To detect proteins by immunohistochemistry, cells were fixed in 4% para-formaldehyde for 15 min at 37° C. (20 min for Tau-1 stainings), aldehyde groups were quenched in 50 mM ammonium chloride for 10 min, and the cells were then extracted with 0.1% Triton X-100 for 3 min.
Length and intensity measurements were done using Scion Image Beta 4.0.2 for MS Windows (based on NIH-image). For length measurements, cVisTec Professional 1.0 (cVisTec, Munich, Germany) was additionally used.
So far we had shown that axonal microtubules have a higher ability to resist depolymerization under harsh microtubule-destabilizing conditions. If there was a putative stability difference in axons and minor neurites, we hypothesized that particular growth conditions should allow formation of axons but not minor neurites. To assess the effect of modest microtubule destabilization on process formation, we treated hippocampal neurons after 1 DIV with low concentrations of Nocodazole. After 2 further DIV under such growth conditions cells were fixed [with 4% PFA/Sucrose] and stained for the axonal marker Tau-1. Using fluorescence microscopy, we evaluated effects on the formation of axons and minor neurites.
To test the influence of microtubule stabilization on axon formation we treated hippocampal neurons after 1 DIV with low concentrations of the microtubule-stabilizing drug Taxol (FIGS. 4A and H). […] Taxol (also known as Paclitaxel) is successfully used as an anti-cancer drug so far as it arrests dividing cells in the G2-M-phase of cell division. Neurons grown in the presence of low concentrations of Taxol were fixed [with 4% PFA/sucrose] after 3 to 7 DIV and stained for the axonal marker Tau-1 or the dendritic marker MAP2. Under control conditions, neurons had formed one axon and several minor neurites (FIGS. 4D and E). […] The number of processes which exceeded 60 μm had increased more than 2-fold by Taxol treatment (DMSO 1.53±0.05, 3 nM Taxol 2.93±0.46, 10 nM Taxol 3.58±0.54) (FIG. 4F). Similarly, the number of cells with more than one Tau-1-positive process went up about 4-fold in a concentration-dependent manner in Taxol-treated neurons (from 20.19±3.19% in DMSO-treated neurons to 80.81±1.71% neurons treated with 10 nM Taxol) (FIG. 4G).

[4] = system: rat hippocampal neurons; assay: Microtubule stability assay: Nocodazole-induced microtubule retraction in hippocampal neurons; assay type: cell-based; details: for cells in which microtubule retraction was significantly higher in minor neurites compared to axons: stage 3 neurons, 5 min
Experimental: as §2
Analyzing short term microtubule depolymerization, the fate of individual neurons was followed. Cells localized on the grid of a Cellocate coverslip were photographed. The coverslip was then transferred into HEPES-buffered HBSS containing Nocodazole and incubated for 5 min at 36.5° C. in the incubator. [As Nocodazole is insoluble in aqueous solutions, special care was taken to ensure equal distribution of Nocodazole in HBSS.] After short term incubation, neurons were PHEM-fixed to eliminate depolymerized tubulin subunits and allow clear visualization of microtubules.
To visualize microtubules clearly, an alternative fixation method (PHEM-fixation) was used if required. To get rid of unpolymerized tubulin subunits, cells were simultaneously fixed and permeabilized for 15 min at 37° C. in PHEM buffer (60 mM PIPES and 25 mM HEPES) containing 3.7% paraformaldehyde, 0.25% glutaraldehyde, 5 mM EGTA, 1 mM MgCl, 3.7% sucrose, and 0.1% Triton X-100 (adapted from Smith, 1994) and quenched as above.
To determine the ratio of acetylated to tyrosinated α-Tubulin, the fluorescence signals of different channels of pictures taken with 63× magnification were compared. In the medial part of each process, the average fluorescence intensity of both acetylated and tyrosinated α-Tubulin was measured in a square of 5×5 pixel and the ratio of the values was determined. For minor neurites of the same cell, the average of the ratios was calculated in polarized neurons and used for comparison to the ratio of the corresponding axon. For unpolarized neurons, the highest ratio was compared to the average of the ratios of the remaining neurites. To measure microtubule retraction after Nocodazole treatment, fixed and stained neurons were relocated on the Cellocate coverslips. Pictures were taken of both the actin cytoskeleton (visualized by staining with Rhodamine-coupled Phalloidin) and the microtubules (stained with an antibody recognizing α-Tubulin). The actin cytoskeleton outlining the neuron was used as a reference point to measure retraction of microtubules from the distal part of the processes towards the cell body.
To test the resistance of microtubules to depolymerization, we applied the drug Nocodazole to stage 3 neurons, followed by fixation [in 3.7% PFA/Sucrose, 0.25% Glutaraldehyde, 1×PHEM-buffer and 0.1% Triton X-100] after a brief incubation (FIG. 2 A). Nocodazole is known to disrupt microtubules by binding to β-Tubulin and […], thus inhibiting microtubule dynamics. After fixation, neurons were doublestained for F-Actin and α-Tubulin or acetylated and tyrosinated α-Tubulin. Fluorescence microscopy and CCD imaging was used to quantify retraction of microtubules from the distal end of processes or distribution of posttranslational modifications of α-Tubulin after partial depolymerization of the microtubule cytoskeleton.

[5] = system: lesioned dorsal column (CNS) axons; assay: Taxol application 24 hours after dorsal column lesion: regenerating sprouts; assay type: in vivo, mice
From the text: (§3) We used an Olympus SZX-12 fluorescent stereomicroscope equipped with 1× Plan Apochromat objective and 1.6× Plan Fluorite objective (Olympus). The ColorView II camera integrated to the microscope was used to capture images through Analysis FIVE software (Soft Imaging System). Animals were anesthetized as described. After removing the laminae at T11/12 level, a small unilateral lesion was applied with the vannas spring scissors (FST) by transecting only the superficial axons of the dorsal columns. We imaged the injury site before and after lesion by acquiring serial images. The animals were kept on a heating pad during the imaging session.
(§4) A small unilateral spinal cord lesion at T12 level was performed as described. 10 μl of 1 μM or 5 μM taxol (Sigma-Aldrich, diluted in Saline) or saline as control was applied onto the lesion site each hour starting immediately after or 24 hours after lesioning. The lesion sites were visualized by in vivo imaging as described. The animals' anesthesia was boosted after 3 hours. At the end of the observation period animals were perfused and prepared for the confocal imaging as described.
The length of the sprouts quantified on confocal images. The length of all sprouts including sprouts emerging from sprouts measured and summed up for final value. As number of sprouts, only primary sprouts emerging from directly axonal shaft were quantified.

[6] = system: astrocytes; assay: Astrocyte numbers in taxol treated cultures; assay type: cell-based
[7] = system: lesioned dorsal column (CNS) axons; assay: Taxol application immediately after dorsal column lesion: retraction bulb formation, in vivo imaging; set-up: species or system GFP-M mice
From the text: as §3, §4, §1
The distance of taxol and saline treated axons to the lesion site was quantified as follows: The lesion site was outlined from the in vivo binocular images. We then measured the distance of the axonal tips to the proximal edge of the lesion.

[8] = system: neurons; details: CNS; cited from earlier work
[9] = 5 μM Nocodazole, brief incubation
[10] = stage 2 neurons (1 DIV), 3.3 μM Nocodazole

For CCC(=O)O[C@H]1C[C@H]2OC[C@@]2(OC(C)=O)[C@H]2[C@H](OC(=O)c3ccccc3)[C@]3(O)C[C@H](OC(=O)[C@H](O)[C@@H](NC(=O)OC(C)(C)C)c4ccco4)C(C)=C([C@@H](O)C(=O)[C@]12C)C3(C)C [MAC-321, 5beta, 20-epoxy-1, 2alpha-, 4-, 7beta-, 10beta-, 13alpha-hexahydroxytax-11-en-9-one 4 acetate 2 benzoate 7-propionate 13-ester with (2R,3S)—N-tertbutoxycarbonyl-3-(2-furyl)isoserine], the Lethal dose [1] is given as 140 mg/kg.
With COC(=O)Nc1nc2ccc(C(=O)c3cccs3)cc2[nH]1 [Nocodazole] the “axons that transformed their growth cones into a bulb” value ([2]; 10 μl of 330 μM nocodazole 24 h after sciatic nerve crush, evaluated 24 h after treatment) was 42.3%±13.2% and 45%±13%, the “tip/axon shaft ratio of nocodazole induced retraction bulbs” value ([2]; 10 μl of 330 μM nocodazole, 24 h after treatment) was 4.25±0.56 and the “number of processes per cell” value ([3]; 15 nM Nocodazole from 1 DIV) was 3.58±0.08. The “increase of total neurite length from day 1 to day 3 in vitro” value ([3]; 45 nM Nocodazole) was “more than 3 fold”, the “number of processes per cell” value ([3]; 45 nM Nocodazole from 1 DIV) was 2.64±0.08 and the total neurite length ([3]; 45 nM Nocodazole) was 197.31 μm. For the same compound, the “increase of total neurite length from day 1 to day 3 in vitro” value ([3]; 75 nM Nocodazole) was over 2 fold, the “number of processes per cell” value ([3]; 75 nM Nocodazole from 1 DIV) was 2.20±0.18 and the total neurite length ([3]; 75 nM Nocodazole) was 134.89 μm. For the same compound, the “microtubule retraction of minor neurites” value [4, 9] was 12.47±2.221 μm, the “retraction of axonal microtubules” value [4, 9] was 8.89 μm and the “average microtubule retraction of the remaining minor neurites” value [4, 10] was 13.71±2.84 μm. For the same compound, the “microtubule retraction in the minor neurite with the lowest retraction” value [4, 10] was 4.50±1.27 μm, the “cells in which microtubule retraction was significantly higher in minor neurites compared to axons” value ([4]; 3.3 μM Nocodazole) was 59.3±6.9% and the “cells in which microtubule retraction was significantly higher in minor neurites compared to axons” value ([4]; 5 μM Nocodazole) was 60%±5.1%.
With CC(=O)O[C@H]1C(=O)[C@@]2(C)[C@H]([C@H](OC(=O)c3ccccc3)[C@]3(O)C[C@H](OC(=O)[C@H](O)[C@@H](NC(=O)c4ccccc4)c4ccccc4)C(C)=C1C3(C)C)[C@]1(OC(C)=O)CO[C@@H]1C[C@@H]2O [Taxol, Tax-11-en-9-one, 5beta,20-epoxy-1,2alpha,4,7beta, 10beta,13alpha-hexahydroxy-, 4,10-diacetate 2-benzoate, 13-ester with (2R,3S)—N-benzoyl-3-phenylisoserine (8Cl)] the “animals in which the extended retraction bulb with filopodia like extensions was observed” value ([5]; 5 μM taxol, 48 h post injury) was 4 out of 12, the “sprout terminals with extended retraction bulb with several filopodia like extensions” value ([5]; 5 μM taxol, 48 h post injury) was 8.9%±5.0% and the “sprout terminals with slim growth cone morphology” value ([5]; 5 μM taxol, 48 h post injury) was 57%±20%. The “sprout terminals with small retraction bulb morphology” value ([5]; 5 μM taxol, 48 h post injury) was 41.8%±16.6%, the “total number of the sprouts from one axon” value ([5]; 10 μl of 5 μM taxol once each hour, 4-5 times, from 24 h post injury, read 48 h post injury) was 7.83±1.79 and the astrocyte numbers [6] was “drastic reduction in astrocyte numbers”. For the same compound, the “number of processes which exceeded 60 μm” value ([3]; 3 nM Taxol from 1 DIV) was 2.93±0.46, the “cells with more than one Tau-1-positive process” value ([3]; 10 nM Taxol) was 80.81±1.71% and the “number of processes which exceeded 60 μm” value ([3]; 10 nM Taxol from 1 DIV) was 3.58±0.54. The “increase of the number of cells with more than one Tau-1-positive process” value ([3]; 10 nM Taxol versus DMSO) was “about 4 fold”, the “increase of the number of processes which exceeded 60 μm” value ([3]; Taxol treatment versus DMSO) was “more than 2 fold” and the “tip/axon ratio of retraction bulbs formed during treatment” value ([7]; 1 μM taxol, 5 biggest retraction bulbs per animal, 6 hours) was 2.53±0.54. The “animals with proximal axonal stumps as close as 25 μm to the injury site” value ([7]; 1 μM taxol, 6 hours after injury) was 6 out of 11, the “axons that developed retraction bulbs (tip/axon ratio >2)” value ([7]; 10 μl of 1 μM taxol once per hour from immediately after injury, first 6 hours) was 22.8%±13.1% and the neuronal death [8] was “induces dose-dependent neuronal death”. The “microtubule retraction in Taxol-induced axon-like processes” value ([4]; 10 nM Taxol for 24 h, then 5 μM Nocodazole briefly) was 7.48±1.761 μm.
